From patent US20240051978A1, “3-CYCLIC AMINE-INDOLE DERIVATIVES AS SEROTONERGIC AGENTS FOR THE TREATMENT OF CNS DISORDERS” (MINDSET PHARMA INC., priority 2020, published 2024)
pEC50, pIC50: −log10 of the molar value.

How the values were obtained:
[1] = molecular target: human 5-HT2A (h5-HT2A) receptor (Homo sapiens (Human), UniProt P28223); assay: FLIPR assay, human 5-HT2A receptor under agonist mode; format: cell-based; details: FLIPR calcium
Method: I. Assessment of the Activated Effect of Exemplary Compounds of Formula I Targeting on Human 5-HT2A (h5-HT2A) Receptor Under Agonist Mode:
1. the Cells were cultured in cell culture medium (DMEM containing 10% FBS 1×penicillin-streptomycin 300 μg/ml G418 and 100 μg/ml hygromycin B) at 37° C., 5% (v/v) CO2.
2. One day before the assays, the cells were detached using TrypLE™ Express and cells were counted using cell counter.
3. 20000 cells/well were seeded in 30 μl/well culture medium to a 384-well cell plate and the cells were incubated overnight at 37° C., 5% (v/v) CO2.
4. On the assay day, 2× dye solution was prepared following the manual of the FLIPR® Calcium 6 Assay Kit: i. The dye was diluted with assay buffer(20 mM HEPES in 1×HBSS, PH7.4); ii. Probenecid was added to the final concentration of 5 mM; iii. Vortex vigorously for 1-2 minutes.
5. Medium was removed from cell plate by flicking the cell plate on towel papers.
6. 10 μl of assay buffer and 10 μl of 2× dye solution was added to each well of the cell plate.
7. The cell plate was placed on plate shaker, and the plate was agitated at 600 rpm for 2 minutes. The plate was incubated at 37° C. for 2 hours followed by additional 15-minute incubation at 25° C.
8. 3× compound in assay buffer was prepared: a. reference compounds were diluted to required concentration with DMSO. Compounds were added to a 384-well compound plate; b. Serial dilutions were performed; c. 10 mM test compounds were added to the compound plate, 3-fold serial dilutions were performed. d. […] 20 μl/well assay buffer was added to the compound plate; f. The plate was mixed on plate shaker for 2 mins;
i. The normalized fluorescence reading (RFU) was calculated as shown below, wherein Fmax and Fmin stand for maximum and minimum of calcium signal during defined time window: RFU=Fmax−Fmin
ii. The percentage activation was calculated by using following equation: […]
iii. EC50 was calculated by fitting % activation against log of compound concentrations with Hill equation using XLfit.

human 5-HT2A receptor = human 5-HT2A receptor (Homo sapiens (Human), UniProt P28223); assay: Radioligand binding assay ([3H]-ketanserin) on human 5-HT2A receptor; details: [3H]-ketanserin competition; read-out: h5-HT2A IC50
Method: • i. The assay buffer was prepared following the table below;
• ii. 8 doses of reference and exemplary test compounds were prepared starting from 10 mM stock solution as requested by 5-fold serial dilutions with 100%; • iii. (v/v) DMSO was prepared: a. 50 μl/well of 0.5% (v/v) PEI was added to UniFilter-96 GF/B plates. The plates were sealed and incubates at 4° C. for 3 hrs; b. After incubation, the plates were washed 3 times with ice-cold wash buffer (50 mM Tris, pH7.4); • iv. Preparation of assay plates: a. Cell membrane was diluted with assay buffer and 330 μl/well was added to 96 round deep well plates to reach a concentration of 20 μg/well; b. 8 concentrations of reference or exemplary test compounds were prepared and added 110 μl/well to 96 round deep well plates; c. [3H]-ketanserin was diluted with assay buffer to 5 nM (5× final concentration) and added 110 μl/well to 96 round deep well plates. • v. The plate were centrifuged at 1000 rpm for 30 secs and then agitated at 600 rpm, R.T. for 5 min. • vi. The plates were sealed and incubated at 27° C. for 90 min. • vii. The incubation was stopped by vacuum filtration onto GF/B filter plates followed by 4 times washing with ice-cold wash buffer (50 mM Tris, pH7.4). • vii. […] The filter plates were sealed and 40 μl/well of scintillation cocktail added. • x. The plate was read by using a Microbeta2 microplate counter.
For reference and exemplary test compounds, the results are expressed as % Inhibition, using the normalization equation: N=100−100×(U−C2)/(C1−C2), where U is the unknown value, C1 is the average of high controls, and C2 is the average of low controls. The IC50 was determined by fitting percentage of inhibition as a function of compound concentrations with Hill equation using XLfit.

[2] = Liver microsomes stability, human; details: for Predicted hepatic CL: Human liver microsomes, with NADPH; for Remaining Percentage (%) 0 min / Remaining Percentage (%) 60 min: Human; for CLint scaled at 2 μM / half-life at 2 μM / microsomal CLint at 2 μM: human, microsomes
Method: (§1) The objective of this study was to estimate in vitro metabolic stability of 1-12 in pooled human and male mouse liver microsomes. The concentrations of parent compounds in reaction systems were evaluated by LC-MS/MS for estimating the stability in pooled human and male mouse liver microsomes. The in vitro intrinsic clearances of test compounds were determined as well.
(§2) A master solution in the “Incubation Plate” containing phosphate buffer, ultra-pure H2O, MgCl2 solution and liver microsomes was made according to Table 3. The mixture was pre-warmed at 37° C. water bath for 5 minutes.
(§3) 40 μL of 10 mM NADPH solution was added to each well. The final concentration of NADPH was 1 mM. The negative control samples were prepared by replacing NADPH with 40 μL of ultra-pure H2O. Samples were prepared in duplicate. Negative controls were prepared in singlet.
(§4) The reaction was started with the addition of 4 μL of 200 μM exemplary test compounds or control compounds to each master solution to get the final concentration of 2 μM. This study was performed in duplicate.
(§5) Aliquots of 50 μL were taken from the reaction solution at 0, 15, 30, 45 and 60 minutes. The reaction solutions were stopped by the addition of 4 volumes of cold methanol with IS (100 nM alprazolam, 200 nM imipramine, 200 nM labetalol and 2 μM ketoprofen). Samples were centrifuged at 3,220 g for 40 minutes. Aliquot of 90 μL of the supernatant was mixed with 90 μL of ultra-pure H2O and then was used for LC-MS/MS analysis.
(§6) LC/MS analysis was performed for all samples from this study using a Shimadzu liquid chromatograph separation system equipped with degasser DUG-20A5R; solvent delivery unit LC-30AD; system controller SIL-30AC; column oven CTO-30A; CTC Analytics HTC PAL System; Mass spectrometric analysis was performed using an Triple Quad™ 5500 instrument.
(§7) All calculations were carried out using Microsoft Excel. Peak area ratios of test compound to internal standard (listed in the below table) were determined from extracted ion chromatograms.
(§8) All calculations were carried out using Microsoft Excel. Peak areas were determined from extracted ion chromatograms. The slope value, k, was determined by linear regression of the natural logarithm of the remaining percentage of the parent drug vs. incubation time curve.
(§9) The in vitro half-life (in vitro t½) was determined from the slope value:
(§10) Conversion of the in vitro t½ (min) into the in vitro intrinsic clearance (in vitro CLint, in μL/min/mg proteins) was done using the following equation (mean of duplicate determinations): […]

[3] = Liver microsomes stability, rat; details: for Predicted hepatic CL: Rat liver microsomes, with NADPH; for Remaining Percentage (%) 0 min / Remaining Percentage (%) 60 min: Rat; for CLint scaled at 2 μM / half-life at 2 μM / microsomal CLint at 2 μM: rat, microsomes
Method: as §1, §2, §3, §4, §5, §6, §7, §8, §9, §10

[4] = Liver microsomes stability, mouse; details: for Predicted hepatic CL: Mouse liver microsomes, with NADPH; for Remaining Percentage (%) 0 min / Remaining Percentage (%) 60 min: Mouse; for CLint scaled at 2 μM / half-life at 2 μM / microsomal CLint at 2 μM: male, mouse, microsomes
Method: as §1, §2, §3, §4, §5, §6, §7, §8, §9, §10

SMILES	pEC50 [1]	pIC50 (human 5-HT2A receptor)	Predicted hepatic CL [2] [mL/min/kg]	Remaining Percentage (%) 0 min ([2]; With NADPH) [%]	Remaining Percentage (%) 60 min ([2]; With NADPH) [%]	Remaining Percentage (%) 0 min ([2]; Without NADPH) [%]	Remaining Percentage (%) 60 min ([2]; Without NADPH) [%]	CLint scaled at 2 μM [2] [mL/min/kg]	Predicted hepatic CL [3] [mL/min/kg]	Remaining Percentage (%) 0 min ([3]; With NADPH) [%]	Remaining Percentage (%) 60 min ([3]; With NADPH) [%]	Remaining Percentage (%) 0 min ([3]; Without NADPH) [%]	Remaining Percentage (%) 60 min ([3]; Without NADPH) [%]	CLint scaled at 2 μM [3] [mL/min/kg]	Predicted hepatic CL [4] [mL/min/kg]	Remaining Percentage (%) 0 min ([4]; With NADPH) [%]	Remaining Percentage (%) 60 min ([4]; With NADPH) [%]	Remaining Percentage (%) 0 min ([4]; Without NADPH) [%]	Remaining Percentage (%) 60 min ([4]; Without NADPH) [%]	CLint scaled at 2 μM [4] [mL/min/kg]	further results
[2H]C1([2H])CC(c2c[nH]c3cccc(O)c23)C([2H])([2H])N1C (stereo not drawn) [Compound I-34, 3-(1-methylpyrrolidin-3-yl-2,2,5,5-d4)-1H-indol-4-ol]	> 6.00	5.00 to 6.00	4.02	100.00	88.74	100.00	80.14	4.99	23.24	100.00	51.06	100.00	85.53	40.1	38.03	100.00	63.66	100.00	96.60	65.9	half-life at 2 μM [2]: 348 min; microsomal CLint at 2 μM [2]: 3.98 µL/min/mg; half-life at 2 μM [3]: 61.9 min; microsomal CLint at 2 μM [3]: 22.4 µL/min/mg; half-life at 2 μM [4]: 92.1 min; microsomal CLint at 2 μM [4]: 15.1 µL/min/mg
[2H]C([2H])N1C([2H])([2H])CC(c2c[nH]c3cccc(F)c23)C1([2H])[2H] (stereo not drawn) [Compound I-41, 4-fluoro-3-(1-(methyl-d2)pyrrolidin-3-yl-2,2,5,5-d4)-1H-indole]	5.00 to 6.00	5.00 to 6.00																			
[2H]C([2H])N1CCC(c2c[nH]c3cccc(OCc4ccccc4)c23)C1 (single isomer, unassigned) [Compound I-36, 4-(benzyloxy)-3-(1-(methyl-d2)pyrrolidin-3-yl)-1H-indole]	< 5.00	< 5.00	12.51	100.00	46.97	100.00	112.84	31.6	33.57	100.00	23.82	100.00	95.23	85.7	74.95	100.00	4.62	100.00	101.31	448	half-life at 2 μM [2]: 55 min; microsomal CLint at 2 μM [2]: 25.2 µL/min/mg; half-life at 2 μM [3]: 29 min; microsomal CLint at 2 μM [3]: 47.8 µL/min/mg; half-life at 2 μM [4]: 13.5 min; microsomal CLint at 2 μM [4]: 102 µL/min/mg
CN(C)CCc1c[nH]c2cccc(O)c12 [Psilocin, 4-hydroxy-N,N-dimethyltryptamine, reference compound]			8.64	100.00	70.16	100.00	87.13	14.8	18.53	100.00	62.68	100.00	96.98	27.9	29.00	100.00	74.57	100.00	91.98	42.8	
